Read-outs that look alike come from different tables or passages of the source.
Key:
A549 cells = assay: In-vitro cytotoxicity by the MTT method, A549 cells; details: 24 hrs
Description: (§1) The in-vitro cytotoxicity of Compounds 1, 12, and 17 was evaluated by the MTT method. HepG2, HEK293 and A549 cells in logarithmic growth phase were respectively trypsinized into a cell suspension. The cell density was adjusted to 5×10^4 cells/mL. 180 μL per well of the cell suspension was inoculated into a sterile 96-well plate at 37° C., and cultured in an incubator at 5% CO2 for 24 hrs. After the cells were attached to the bottom of the plate, 20 μL of the drug solutions over the concentration gradients were respectively added into each well, and 6 replicate wells were set in parallel. Also, a blank group (group without cells and drug) and a control group (group without drug) were set. The system was incubated in an incubator at 37° C. and 5% CO2 for 24 hrs, and then 20 μL per well of a 5 g/L MTT solution was added and incubated for another 4 hrs. After the incubation was completed, the culture medium in the well was gently aspirated, and 100 μL of DMSO was added to each well. Then the crystal was fully dissolved in a shaker for 10 min at a low speed. After that, the absorbency of each well was measured at OD490 nm in an enzymelinked immunodetector, and the survival rate of cells was calculated.

SARS-CoV-2 3CL^pro = SARS-CoV-2 3CL^pro (Severe acute respiratory syndrome coronavirus 2 (2019-nCoV) (SARS-CoV-2), UniProt P0DTD1); assay: biochemical; details: for IC50: FRET
HEK293 cells = assay: In-vitro cytotoxicity by the MTT method, HEK293 cells; details: 24 hrs
Description: as §1

HepG2 cells = assay: In-vitro cytotoxicity by the MTT method, HepG2 cells; details: 24 hrs
Description: as §1

## CCn1nnnc1Cn1c(=O)[nH]/c(=N\c2cc3cn(C)nc3cc2Cl)n(Cc2cc(F)c(F)cc2F)c1=O [Compound 17]
A549 cells; 1.5625 nM
  Survival rate of A549 cells: 98.02%
A549 cells; 3.125 nM
  Survival rate of A549 cells: 97.96%
A549 cells; 6.25 nM
  Survival rate of A549 cells: 97.24%
A549 cells; 12.5 nM
  Survival rate of A549 cells: 96.38%
A549 cells; 25 nM
  Survival rate of A549 cells: 95.77%
A549 cells; 50 nM
  Survival rate of A549 cells: 94.13%
A549 cells; 100 nM
  Survival rate of A549 cells: 94.21%
A549 cells; 200 nM
  Survival rate of A549 cells: 93.31%
A549 cells; 400 nM
  Survival rate of A549 cells: 91.33%
SARS-CoV-2 3CL^pro; class symbols, read-out: IC50 (nM), inhibitory activity against 3CL^pro
  IC50: < 200 nM
SARS-CoV-2 3CL^pro; non-linear regression, read-out: IC50 against 3CL^pro
  IC50: 160 nM
SARS-CoV-2 3CL^pro; concentration 0.1 nM
  inhibition percentage of 3CL^pro: 0.76%
SARS-CoV-2 3CL^pro; concentration 1 nM
  inhibition percentage of 3CL^pro: 1.93%
SARS-CoV-2 3CL^pro; concentration 5 nM
  inhibition percentage of 3CL^pro: 6.21%
SARS-CoV-2 3CL^pro; concentration 10 nM
  inhibition percentage of 3CL^pro: 7.67%
SARS-CoV-2 3CL^pro; concentration 20 nM
  inhibition percentage of 3CL^pro: 12.76%
SARS-CoV-2 3CL^pro; concentration 30 nM
  inhibition percentage of 3CL^pro: 17.92%
SARS-CoV-2 3CL^pro; concentration 50 nM
  inhibition percentage of 3CL^pro: 25.23%
SARS-CoV-2 3CL^pro; concentration 100 nM
  inhibition percentage of 3CL^pro: 44.76%
SARS-CoV-2 3CL^pro; concentration 500 nM
  inhibition percentage of 3CL^pro: 68.52%
SARS-CoV-2 3CL^pro; concentration 1000 nM
  inhibition percentage of 3CL^pro: 85.36%
HEK293 cells; 1.5625 nM
  Survival rate of HEK293 cells: 93.79%
HEK293 cells; 3.125 nM
  Survival rate of HEK293 cells: 93.12%
HEK293 cells; 6.25 nM
  Survival rate of HEK293 cells: 93.48%
HEK293 cells; 12.5 nM
  Survival rate of HEK293 cells: 90.79%
HEK293 cells; 25 nM
  Survival rate of HEK293 cells: 85.73%
HEK293 cells; 50 nM
  Survival rate of HEK293 cells: 84.32%
HEK293 cells; 100 nM
  Survival rate of HEK293 cells: 83.83%
HEK293 cells; 200 nM
  Survival rate of HEK293 cells: 79.45%
HEK293 cells; 400 nM
  Survival rate of HEK293 cells: 78.03%
HepG2 cells; 1.5625 nM
  Survival rate of HepG2 cells: 95.56%
HepG2 cells; 3.125 nM
  Survival rate of HepG2 cells: 95.79%
HepG2 cells; 6.25 nM
  Survival rate of HepG2 cells: 94.43%
HepG2 cells; 12.5 nM
  Survival rate of HepG2 cells: 91.02%
HepG2 cells; 25 nM
  Survival rate of HepG2 cells: 90.46%
HepG2 cells; 50 nM
  Survival rate of HepG2 cells: 87.13%
HepG2 cells; 100 nM
  Survival rate of HepG2 cells: 83.85%
HepG2 cells; 200 nM
  Survival rate of HepG2 cells: 80.42%
HepG2 cells; 400 nM
  Survival rate of HepG2 cells: 76.13%
